In ChEMBL document CHEMBL2203234, “Optimisation of imidazole compounds as selective TAAR1 agonists: discovery of RO5073012” (Bioorg Med Chem Lett, 2012):
pKi: −log10 of the molar value.

How the values were obtained:
[1] = species: Homo sapiens; assay: Inhibition of human AMPA receptor at 10 uM by CEREP assay
[2] = molecular target: 5-hydroxytryptamine receptor 7 (Homo sapiens) (UniProt P34969); assay: Inhibition of human 5-HT7 receptor at 10 uM by CEREP assay
[3] = species: Homo sapiens; assay: Inhibition of human I1 receptor at 10 uM by CEREP assay
[4] = Inhibition of Cl- channel at 10 uM by CEREP assay
[5] = molecular target: Thromboxane A2 receptor (Homo sapiens) (UniProt P21731); assay: Inhibition of human TXA2/PGH2 receptor at 10 uM by CEREP assay
[6] = molecular target: Motilin receptor (Homo sapiens) (UniProt O43193); assay: Inhibition of human Motilin receptor at 10 uM by CEREP assay
[7] = Inhibition of L-type Ca2+ channel verapamil site at 10 uM by CEREP assay
[8] = molecular target: Neurotensin receptor type 1 (Homo sapiens) (UniProt P30989); assay: Inhibition of human NT1 receptor at 10 uM by CEREP assay
[9] = molecular target: 5-hydroxytryptamine receptor 3A (Homo sapiens) (UniProt P46098); assay: Inhibition of human 5-HT3 receptor at 10 uM by CEREP assay
[10] = Cmax in mouse at 7.1 mg/kg, po; type: ADME, organism-based; parameters: dose 7.1 mg/kg, route oral; details: in vivo
[11] = molecular target: Androgen receptor (Homo sapiens) (UniProt P10275); assay: Inhibition of human androgen receptor at 10 uM by CEREP assay
[12] = molecular target: 5-hydroxytryptamine receptor 4 (Homo sapiens) (UniProt Q13639); assay: Inhibition of human 5-HT4 receptor at 10 uM by CEREP assay
[13] = molecular target: Phosphodiesterase 4 (Homo sapiens) (UniProt P27815+Q08499+Q07343+Q08493); assay: Inhibition of human PDE4 at 10 uM by CEREP assay; type: protein assay
[14] = Inhibition of L-type Ca2+ channel diltiazem site at 10 uM by CEREP assay
[15] = Inhibition of GABA receptor at 10 uM by CEREP assay
[16] = Inhibition of alpha 1 adrenergic receptor at 10 uM by CEREP assay
[17] = molecular target: Beta-2 adrenergic receptor (Homo sapiens) (UniProt P07550); assay: Inhibition of human beta 2 adrenergic receptor at 10 uM by CEREP assay
[18] = molecular target: Histamine H3 receptor (Homo sapiens) (UniProt Q9Y5N1); assay: Inhibition of human H3 receptor at 10 uM by CEREP assay
[19] = molecular target: 5-hydroxytryptamine receptor 5A (Homo sapiens) (UniProt P47898); assay: Inhibition of human 5-HT5A receptor at 10 uM by CEREP assay
[20] = tested on: CHL; assay: Selectivity ratio of Ki for human adrenergic alpha2A receptor expressed in CHL cells to Ki for human TAAR1 receptor; type: cell-based
[21] = molecular target: Substance-K receptor (Homo sapiens) (UniProt P21452); assay: Inhibition of human Nk2 receptor at 10 uM by CEREP assay
[22] = Oral bioavailability in mouse at 7.1 mg/kg; type: ADME, organism-based; details: in vivo
[23] = molecular target: 5-hydroxytryptamine receptor 1D (Homo sapiens) (UniProt P28221); assay: Inhibition of 5-HT1D receptor at 10 uM by CEREP assay
[24] = molecular target: Histamine H2 receptor (Homo sapiens) (UniProt P25021); assay: Inhibition of human H2 receptor at 10 uM by CEREP assay
[25] = molecular target: D(1A) dopamine receptor (Homo sapiens) (UniProt P21728); assay: Inhibition of human D1 receptor at 10 uM by CEREP assay
[26] = Inhibition of tyrosine hydroxylase at 10 uM by CEREP assay
[27] = molecular target: Calcitonin gene-related peptide type 1 receptor (Homo sapiens) (UniProt Q16602); assay: Inhibition of human CGRP receptor at 10 uM by CEREP assay
[28] = molecular target: 5-hydroxytryptamine receptor 6 (Homo sapiens) (UniProt P50406); assay: Inhibition of human 5-HT6 receptor at 10 uM by CEREP assay
[29] = molecular target: Glutamate [NMDA] receptor (Homo sapiens) (UniProt Q05586+Q12879+Q13224+O15399+O60391+Q14957+Q8TCU5); assay: Inhibition of human NMDA receptor at 10 uM by CEREP assay
[30] = molecular target: 5-hydroxytryptamine receptor 1B (Homo sapiens) (UniProt P28222); assay: Inhibition of 5-HT1B receptor at 10 uM by CEREP assay
[31] = molecular target: T1, Trace amine-associated receptor 1 (Homo sapiens, UniProt Q96RJ0); assay: Displacement of (S)-4-(2,4-difluorophenyl-3-tritio) -4,5-dihydro-2-oxazolamine from human TAAR1 receptor expressed in HEK293 cells after 90 mins by beta counting analysis; type: cell-based
T1 sequence (Q96RJ0 whole entry): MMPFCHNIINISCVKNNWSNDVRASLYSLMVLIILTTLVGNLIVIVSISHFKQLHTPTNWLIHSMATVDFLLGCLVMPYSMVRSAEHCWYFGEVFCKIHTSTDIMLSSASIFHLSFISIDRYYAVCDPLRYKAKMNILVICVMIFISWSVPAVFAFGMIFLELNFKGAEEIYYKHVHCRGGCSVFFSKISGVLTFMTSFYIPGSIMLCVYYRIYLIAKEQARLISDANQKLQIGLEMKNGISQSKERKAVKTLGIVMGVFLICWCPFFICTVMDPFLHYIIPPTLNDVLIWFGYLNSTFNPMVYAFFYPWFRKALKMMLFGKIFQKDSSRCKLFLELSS

[32] = species: Homo sapiens; assay: Inhibition of human I2 receptor at 10 uM by CEREP assay
[33] = Inhibition of SKca channel at 10 uM by CEREP assay
[34] = molecular target: cGMP-dependent 3',5'-cyclic phosphodiesterase (Homo sapiens) (UniProt O00408); assay: Inhibition of human PDE2 at 10 uM by CEREP assay
[35] = Inhibition of K-ATP channel at 10 uM by CEREP assay
[36] = molecular target: Glucagon receptor (Homo sapiens) (UniProt P47871); assay: Inhibition of human glucagon receptor at 10 uM by CEREP assay
[37] = Inhibition of sigma receptor at 10 uM by CEREP assay
[38] = molecular target: Muscarinic acetylcholine receptor M1 (Homo sapiens) (UniProt P11229); assay: Inhibition of human M1 receptor at 10 uM by CEREP assay
[39] = Inhibition of Na+/K+ ATPase at 10 uM by CEREP assay
[40] = molecular target: Sodium-dependent dopamine transporter (Homo sapiens) (UniProt Q01959); assay: Inhibition of human DA transporter at 10 uM by CEREP assay
[41] = molecular target: Phosphodiesterase 6 (Homo sapiens) (UniProt Q13956+P18545+P35913+O43924+P16499+P51160); assay: Inhibition of human PDE6 at 10 uM by CEREP assay; type: protein assay

Sequence of 5-hydroxytryptamine receptor 1D (Homo sapiens) (P28221 whole entry): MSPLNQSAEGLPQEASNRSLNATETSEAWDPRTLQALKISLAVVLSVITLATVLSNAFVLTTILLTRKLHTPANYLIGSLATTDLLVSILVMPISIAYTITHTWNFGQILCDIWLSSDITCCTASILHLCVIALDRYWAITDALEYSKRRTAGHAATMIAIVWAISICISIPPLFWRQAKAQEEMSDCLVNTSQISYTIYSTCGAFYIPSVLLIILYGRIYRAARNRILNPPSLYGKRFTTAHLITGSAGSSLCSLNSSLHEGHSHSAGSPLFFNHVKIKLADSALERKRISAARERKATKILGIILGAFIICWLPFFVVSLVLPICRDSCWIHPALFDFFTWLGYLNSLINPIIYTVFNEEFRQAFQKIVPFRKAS
Sequence of Substance-K receptor (Homo sapiens) (P21452 whole entry): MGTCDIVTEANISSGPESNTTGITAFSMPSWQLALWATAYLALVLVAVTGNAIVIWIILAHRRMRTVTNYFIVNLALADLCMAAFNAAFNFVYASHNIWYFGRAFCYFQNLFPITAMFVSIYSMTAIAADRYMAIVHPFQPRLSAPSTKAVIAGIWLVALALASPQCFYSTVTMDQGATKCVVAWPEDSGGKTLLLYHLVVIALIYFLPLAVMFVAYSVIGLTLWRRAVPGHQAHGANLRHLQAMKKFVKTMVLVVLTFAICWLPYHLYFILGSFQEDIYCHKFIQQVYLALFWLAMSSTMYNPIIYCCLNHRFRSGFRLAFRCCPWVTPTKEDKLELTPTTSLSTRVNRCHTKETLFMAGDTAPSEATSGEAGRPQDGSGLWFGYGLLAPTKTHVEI
Sequence of 5-hydroxytryptamine receptor 5A (Homo sapiens) (P47898 whole entry): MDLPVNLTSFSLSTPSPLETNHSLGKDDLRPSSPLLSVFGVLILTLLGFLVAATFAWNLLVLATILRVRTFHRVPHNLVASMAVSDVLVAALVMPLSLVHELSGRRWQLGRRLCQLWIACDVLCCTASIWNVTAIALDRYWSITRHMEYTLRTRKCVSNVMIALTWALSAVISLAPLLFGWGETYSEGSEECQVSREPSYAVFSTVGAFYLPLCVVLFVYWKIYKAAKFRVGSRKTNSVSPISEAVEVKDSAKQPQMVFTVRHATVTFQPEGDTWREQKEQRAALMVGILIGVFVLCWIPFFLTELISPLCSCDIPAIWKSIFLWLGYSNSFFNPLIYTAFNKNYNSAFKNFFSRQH
Sequence of Motilin receptor (Homo sapiens) (O43193 whole entry): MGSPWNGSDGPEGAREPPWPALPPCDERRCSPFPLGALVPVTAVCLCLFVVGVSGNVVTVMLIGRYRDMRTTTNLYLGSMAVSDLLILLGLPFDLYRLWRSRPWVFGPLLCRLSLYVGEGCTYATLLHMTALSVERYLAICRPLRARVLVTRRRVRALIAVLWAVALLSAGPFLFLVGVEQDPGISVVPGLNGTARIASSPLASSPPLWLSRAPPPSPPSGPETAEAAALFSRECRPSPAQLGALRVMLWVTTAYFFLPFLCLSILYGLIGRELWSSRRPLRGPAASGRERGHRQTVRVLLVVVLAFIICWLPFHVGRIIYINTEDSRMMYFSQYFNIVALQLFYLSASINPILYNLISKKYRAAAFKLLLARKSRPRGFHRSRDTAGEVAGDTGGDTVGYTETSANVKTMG
Sequence of 5-hydroxytryptamine receptor 1B (Homo sapiens) (P28222 whole entry): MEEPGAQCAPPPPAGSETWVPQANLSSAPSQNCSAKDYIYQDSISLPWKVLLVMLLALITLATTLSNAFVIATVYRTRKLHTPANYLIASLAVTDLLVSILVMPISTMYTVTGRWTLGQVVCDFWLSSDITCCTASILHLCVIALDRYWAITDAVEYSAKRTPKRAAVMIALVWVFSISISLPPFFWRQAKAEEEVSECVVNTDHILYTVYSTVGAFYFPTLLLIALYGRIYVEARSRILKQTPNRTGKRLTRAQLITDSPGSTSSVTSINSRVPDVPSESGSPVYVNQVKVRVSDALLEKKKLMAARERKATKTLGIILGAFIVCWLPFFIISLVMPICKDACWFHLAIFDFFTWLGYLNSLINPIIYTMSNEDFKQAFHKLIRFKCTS
Sequence of Neurotensin receptor type 1 (Homo sapiens) (P30989 whole entry): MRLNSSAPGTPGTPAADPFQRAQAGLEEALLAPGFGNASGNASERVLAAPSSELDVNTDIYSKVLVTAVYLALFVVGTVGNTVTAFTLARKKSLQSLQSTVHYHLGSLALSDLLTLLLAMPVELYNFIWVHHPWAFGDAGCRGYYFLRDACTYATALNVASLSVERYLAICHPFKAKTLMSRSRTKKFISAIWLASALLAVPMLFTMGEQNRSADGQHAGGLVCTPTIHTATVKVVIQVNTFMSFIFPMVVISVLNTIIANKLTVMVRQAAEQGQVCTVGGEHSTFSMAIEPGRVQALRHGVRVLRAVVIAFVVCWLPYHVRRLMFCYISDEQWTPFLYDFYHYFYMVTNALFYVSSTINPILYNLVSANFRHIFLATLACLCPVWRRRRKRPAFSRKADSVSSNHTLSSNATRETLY
Sequence of Histamine H3 receptor (Homo sapiens) (Q9Y5N1 whole entry): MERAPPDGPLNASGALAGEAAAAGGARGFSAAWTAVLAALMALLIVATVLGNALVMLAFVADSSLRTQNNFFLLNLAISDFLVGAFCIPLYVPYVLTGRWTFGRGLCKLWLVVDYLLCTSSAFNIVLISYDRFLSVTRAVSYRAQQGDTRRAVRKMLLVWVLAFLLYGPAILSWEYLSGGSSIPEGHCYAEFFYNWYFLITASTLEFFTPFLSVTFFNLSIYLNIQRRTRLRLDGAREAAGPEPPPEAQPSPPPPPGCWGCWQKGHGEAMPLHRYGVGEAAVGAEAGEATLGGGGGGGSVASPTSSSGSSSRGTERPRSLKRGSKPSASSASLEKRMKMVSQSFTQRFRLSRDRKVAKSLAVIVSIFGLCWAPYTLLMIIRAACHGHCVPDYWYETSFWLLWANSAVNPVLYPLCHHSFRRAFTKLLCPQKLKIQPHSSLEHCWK
Sequence of cGMP-dependent 3',5'-cyclic phosphodiesterase (Homo sapiens) (O00408 whole entry): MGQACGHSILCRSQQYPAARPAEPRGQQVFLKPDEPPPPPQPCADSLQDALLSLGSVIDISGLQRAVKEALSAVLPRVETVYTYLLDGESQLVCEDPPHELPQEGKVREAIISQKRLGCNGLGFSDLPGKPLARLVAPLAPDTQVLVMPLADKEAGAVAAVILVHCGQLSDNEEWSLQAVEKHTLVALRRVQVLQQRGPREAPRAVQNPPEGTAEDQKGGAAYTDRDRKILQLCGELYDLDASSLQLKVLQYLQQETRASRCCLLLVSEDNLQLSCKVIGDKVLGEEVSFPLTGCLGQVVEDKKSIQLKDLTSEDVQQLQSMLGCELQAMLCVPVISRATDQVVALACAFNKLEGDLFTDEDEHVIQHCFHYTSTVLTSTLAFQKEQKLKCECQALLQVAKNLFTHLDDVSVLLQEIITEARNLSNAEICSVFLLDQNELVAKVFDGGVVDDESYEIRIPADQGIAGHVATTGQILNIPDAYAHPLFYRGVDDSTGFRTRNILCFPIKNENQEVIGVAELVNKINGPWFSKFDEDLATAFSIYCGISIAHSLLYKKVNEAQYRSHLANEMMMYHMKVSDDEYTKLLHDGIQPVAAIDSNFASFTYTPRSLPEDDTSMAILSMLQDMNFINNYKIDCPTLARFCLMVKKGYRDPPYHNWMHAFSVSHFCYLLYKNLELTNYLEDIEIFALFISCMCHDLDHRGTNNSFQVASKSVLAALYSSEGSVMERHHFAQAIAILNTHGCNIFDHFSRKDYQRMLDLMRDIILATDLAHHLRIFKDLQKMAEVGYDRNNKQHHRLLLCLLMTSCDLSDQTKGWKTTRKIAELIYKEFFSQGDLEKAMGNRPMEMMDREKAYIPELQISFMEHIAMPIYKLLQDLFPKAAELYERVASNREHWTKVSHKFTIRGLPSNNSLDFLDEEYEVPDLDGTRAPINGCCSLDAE
Sequence of Beta-2 adrenergic receptor (Homo sapiens) (P07550 whole entry, looked up): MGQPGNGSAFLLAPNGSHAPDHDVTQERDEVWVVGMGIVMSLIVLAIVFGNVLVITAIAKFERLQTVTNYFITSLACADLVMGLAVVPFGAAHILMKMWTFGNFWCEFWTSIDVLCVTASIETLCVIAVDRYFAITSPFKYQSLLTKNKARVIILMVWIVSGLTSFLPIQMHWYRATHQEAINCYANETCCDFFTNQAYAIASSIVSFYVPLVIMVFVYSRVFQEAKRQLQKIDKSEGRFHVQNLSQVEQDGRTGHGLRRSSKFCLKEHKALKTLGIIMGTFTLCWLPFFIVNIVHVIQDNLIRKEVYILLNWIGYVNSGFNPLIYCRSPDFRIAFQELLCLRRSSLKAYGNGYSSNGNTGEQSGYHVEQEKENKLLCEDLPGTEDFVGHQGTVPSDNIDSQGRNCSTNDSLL
Sequence of Muscarinic acetylcholine receptor M1 (Homo sapiens) (P11229 whole entry): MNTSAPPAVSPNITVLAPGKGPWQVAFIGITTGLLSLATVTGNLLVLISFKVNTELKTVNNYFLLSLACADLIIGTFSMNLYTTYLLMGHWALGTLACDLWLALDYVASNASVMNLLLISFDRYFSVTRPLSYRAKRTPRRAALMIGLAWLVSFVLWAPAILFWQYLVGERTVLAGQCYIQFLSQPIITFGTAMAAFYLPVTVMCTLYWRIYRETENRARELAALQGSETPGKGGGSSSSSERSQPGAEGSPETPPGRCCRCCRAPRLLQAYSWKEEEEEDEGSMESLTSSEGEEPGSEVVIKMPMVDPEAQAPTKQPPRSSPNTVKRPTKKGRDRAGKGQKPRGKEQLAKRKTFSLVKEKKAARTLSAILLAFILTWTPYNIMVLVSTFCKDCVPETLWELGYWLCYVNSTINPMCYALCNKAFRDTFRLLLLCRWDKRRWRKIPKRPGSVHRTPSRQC
Sequence of Histamine H2 receptor (Homo sapiens) (P25021 whole entry): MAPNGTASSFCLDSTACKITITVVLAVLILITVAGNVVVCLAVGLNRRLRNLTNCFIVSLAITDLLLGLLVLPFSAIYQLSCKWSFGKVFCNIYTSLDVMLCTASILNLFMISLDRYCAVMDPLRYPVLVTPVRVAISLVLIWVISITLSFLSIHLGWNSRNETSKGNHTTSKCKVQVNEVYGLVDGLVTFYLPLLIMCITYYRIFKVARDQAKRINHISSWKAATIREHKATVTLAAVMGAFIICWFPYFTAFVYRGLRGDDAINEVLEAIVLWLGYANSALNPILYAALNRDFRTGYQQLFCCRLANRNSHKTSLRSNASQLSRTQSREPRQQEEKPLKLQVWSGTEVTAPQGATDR

CCc1cccc(CC)c1Cc1ncc[nH]1
inhibition [1]: 11%
inhibition [2]: 54%
inhibition [3]: 78%
inhibition [4]: 3%
inhibition [5]: 7%
inhibition [6]: 4%
inhibition [7]: 10%
inhibition [8]: -3%
inhibition [9]: -6%
Cmax [10]: 300 ng/mL
inhibition [11]: 2%
inhibition [12]: 8%
inhibition [13]: -2%
inhibition [14]: 34%
inhibition [15]: -10%
inhibition [16]: 23%
inhibition [17]: 6%
inhibition [18]: 6%
inhibition [19]: 20%
Ratio Ki [20]: 100
inhibition [21]: 3%
bioavailability [22]: 21%
inhibition [23]: 19%
inhibition [24]: 4%
inhibition [25]: 8%
inhibition [26]: 1%
inhibition [27]: -5%
inhibition [28]: 9%
inhibition [29]: 2%
inhibition [30]: 18%
pKi [31]: 7.62
inhibition [32]: 59%
inhibition [33]: 0%
inhibition [34]: -5%
inhibition [35]: 7%
inhibition [36]: -5%
inhibition [37]: 14%
inhibition [38]: 24%
inhibition [39]: -1%
inhibition [40]: 0%
inhibition [41]: 6%
